The values that follow come from patent US8178506B2, “Oligomeric compounds and compositions for use in modulation of small non-coding RNAs” (Regulus Therapeutics Inc., priority 2003, dated 2012).

Several values for one entry are separate records, joined by “and”; a condition that tells them apart may be missing. Equal entries are not always repeated. In the oligonucleotide strings, read from the 5' end, every base follows the letter of its sugar. An asterisk marks phosphorothioate; unmarked linkages are phosphodiester. Other units and linkages are bracketed, terminal groups are in braces. A string of capitals states the bases alone. e = 2'-O-(2-methoxyethyl) (MOE); [5mC] = 5-methylcytosine; d = 2'-deoxy (DNA)

For the data set, the system named is HeLa cells. The experiment in a line: Cell cycle assay in HeLa cells. The class given is cell-based, human. The conditions noted are these: HeLa cells; for % cells in cell cycle phase: G1 / % cells in cell cycle phase: G2/M / % cells in cell cycle phase: S / % cells in cell cycle phase: aneuploid / % cells in cell cycle phase: subG1: 48 hours after treatment, relative to untreated control (UTC=100).

Setting [1] is: 150 nM oligomeric compound, 24 hours, relative to untreated control (UTC = 100).
[2] abbreviates: 150 nM, 48 hours, relative to untreated control.

For the substance “327896 (antisense eA*e[5mC]*eA*eG*eT*eT*e[5mC]*eT*eT*e[5mC]*eA*eA*e[5mC]*eT*eG*eG*e[5mC]*eA*eG*e[5mC]*eT*eT) [compound 327896]”, under setting [1], the “% cells aneuploid” value came to 65%, the “% cells in cell cycle phase G1” value stood at 83%, the “% cells in cell cycle phase G2/M” value worked out at 128% and the “% cells in cell cycle phase S” value is 103%. Further, under setting [1], the “% cells in cell cycle phase subG1” value is on record as 121%. Further, under “150 nM oligomeric compound”, the “% cells in cell cycle phase: G1” value turned out to be 55%, the “% cells in cell cycle phase: G2/M” value is 194%, the “% cells in cell cycle phase: S” value is recorded as 140% and the “% cells in cell cycle phase: aneuploid” value is 66%. In addition, where the note is “150 nM oligomeric compound”, the “% cells in cell cycle phase: subG1” value came out at 886%. Under setting [2], the “% cells in cell cycle phase G1” value is 103%, the “% cells in cell cycle phase G2/M” value is 106%, the “% cells in cell cycle phase S” value was found to be 94% and the “% cells in cell cycle phase aneuploid” value is on record as 144%. The “% cells in cell cycle phase subG1” value under setting [2] is given as 95%.

For the substance “327897 (antisense eA*e[5mC]*eA*eG*eG*e[5mC]*e[5mC]*eG*eG*eG*eA*e[5mC]*eA*eA*eG*eT*eG*e[5mC]*eA*eA*eT*eA) [compound 327897]”, under setting [1], the “% cells aneuploid” value is 69% and 54%; the “% cells in cell cycle phase G1” value was 114% and 128%; the “% cells in cell cycle phase G2/M” value was 115% and 100%; the “% cells in cell cycle phase S” value was 80% and 74%. The “% cells in cell cycle phase subG1” value under setting [1] was 143% and 180%. For the same substance, under “150 nM oligomeric compound”, the “% cells in cell cycle phase: G1” value was 100% and 94%; the “% cells in cell cycle phase: G2/M” value was 95% and 105%; the “% cells in cell cycle phase: S” value is 103% and 114%; the “% cells in cell cycle phase: aneuploid” value is 84% and 63%. In addition, the “% cells in cell cycle phase: subG1” value (150 nM oligomeric compound) is 134% and 125%.

For “328111 (antisense eT*e[5mC]*e[5mC]*eG*eA*eG*eT*e[5mC]*eG*eG*eA*eG*eG*eA*eG*eG*eA*eG*eG*eA*eA) [compound 328111]”, under setting [1], the “% cells aneuploid” value turned out to be 50%, the “% cells in cell cycle phase G1” value was 127%, the “% cells in cell cycle phase G2/M” value was 99% and the “% cells in cell cycle phase S” value was found to be 75%. In addition, the “% cells in cell cycle phase subG1” value under setting [1] was 62%. For the same substance, where the note is “150 nM oligomeric compound”, the “% cells in cell cycle phase: G1” value is 84%, the “% cells in cell cycle phase: G2/M” value worked out at 119%, the “% cells in cell cycle phase: S” value was 126% and the “% cells in cell cycle phase: aneuploid” value is given as 90%. Besides, the “% cells in cell cycle phase: subG1” value (150 nM oligomeric compound) came to 371%.

“327885 (antisense eA*e[5mC]*eT*eA*e[5mC]*e[5mC]*eT*eG*e[5mC]*eA*e[5mC]*eT*eG*eT*eA*eA*eG*e[5mC]*eA*e[5mC]*eT*eT*eT*eG) [compound 327885]”: under setting [1], the “% cells aneuploid” value was 55%, the “% cells in cell cycle phase G1” value is 129%, the “% cells in cell cycle phase G2/M” value was determined as 121% and the “% cells in cell cycle phase S” value was 63%. Moreover, under setting [1], the “% cells in cell cycle phase subG1” value is 151%. Further, where the note is “150 nM oligomeric compound”, the “% cells in cell cycle phase: G1” value is given as 78%, the “% cells in cell cycle phase: G2/M” value came out at 133%, the “% cells in cell cycle phase: S” value turned out to be 129% and the “% cells in cell cycle phase: aneuploid” value stood at 76%. Also, the “% cells in cell cycle phase: subG1” value (150 nM oligomeric compound) is recorded as 456%.

With “327892 (antisense eA*e[5mC]*eT*eT*eT*e[5mC]*eG*eG*eT*eT*eA*eT*e[5mC]*eT*eA*eG*e[5mC]*eT*eT*eT*eA) [compound 327892]”, under setting [1], the “% cells aneuploid” value is 80%, the “% cells in cell cycle phase G1” value was determined as 86%, the “% cells in cell cycle phase G2/M” value was 103% and the “% cells in cell cycle phase S” value was 111%. Besides, the “% cells in cell cycle phase subG1” value under setting [1] is given as 153%. Moreover, where the note is “150 nM oligomeric compound”, the “% cells in cell cycle phase: G1” value was found to be 74%, the “% cells in cell cycle phase: G2/M” value is 129%, the “% cells in cell cycle phase: S” value amounted to 150% and the “% cells in cell cycle phase: aneuploid” value is listed as 79%. Besides, under “150 nM oligomeric compound”, the “% cells in cell cycle phase: subG1” value was 121%.

With “327956 (antisense e[5mC]*eA*e[5mC]*eA*eG*eT*eT*eG*e[5mC]*e[5mC]*eA*eG*e[5mC]*eT*eG*eA*eG*eA*eT*eT*eA) [compound 327956]”, under setting [1], the “% cells aneuploid” value is 61%, the “% cells in cell cycle phase G1” value is on record as 124%, the “% cells in cell cycle phase G2/M” value stood at 120% and the “% cells in cell cycle phase S” value was 68%. Moreover, the “% cells in cell cycle phase subG1” value under setting [1] is reported as 120%. In addition, under “150 nM oligomeric compound”, the “% cells in cell cycle phase: G1” value was 91%, the “% cells in cell cycle phase: G2/M” value is recorded as 121%, the “% cells in cell cycle phase: S” value turned out to be 106% and the “% cells in cell cycle phase: aneuploid” value is reported as 110%. Also, the “% cells in cell cycle phase: subG1” value (150 nM oligomeric compound) is 184%.

For “327910 (antisense eT*eG*eA*eT*eA*eG*e[5mC]*e[5mC]*e[5mC]*eT*eG*eT*eA*e[5mC]*eA*eA*eT*eG*e[5mC]*eT*eG*e[5mC]*eT) [compound 327910]”, under setting [1], the “% cells aneuploid” value is reported as 73%, the “% cells in cell cycle phase G1” value turned out to be 154%, the “% cells in cell cycle phase G2/M” value was 118% and the “% cells in cell cycle phase S” value is on record as 42%. The “% cells in cell cycle phase subG1” value under setting [1] was determined as 174%. Also, where the note is “150 nM oligomeric compound”, the “% cells in cell cycle phase: G1” value is 99%, the “% cells in cell cycle phase: G2/M” value came to 111%, the “% cells in cell cycle phase: S” value came to 91% and the “% cells in cell cycle phase: aneuploid” value is 92%. The “% cells in cell cycle phase: subG1” value (150 nM oligomeric compound) is given as 53%.

For “340927 (antisense eT*eG*eA*eG*e[5mC]*dT*dA*d[5mC]*dA*dG*dT*dG*d[5mC]*dT*dT*e[5mC]*eA*eT*e[5mC]*eT*e[5mC]*eA) [compound 340927]”, under setting [1], the “% cells aneuploid” value is 88% and 87%; the “% cells in cell cycle phase G1” value is 121% and 128%; the “% cells in cell cycle phase G2/M” value is 111% and 106%; the “% cells in cell cycle phase S” value is 75% and 71%. Further, under setting [1], the “% cells in cell cycle phase subG1” value is 118% and 131%. For the setting “150 nM oligomeric compound”, the “% cells in cell cycle phase: G1” value stood at 91%; the “% cells in cell cycle phase: G2/M” value is 121% and 122%; the “% cells in cell cycle phase: S” value was 107%; the “% cells in cell cycle phase: aneuploid” value is 113% and 108%. For the same substance, the “% cells in cell cycle phase: subG1” value (150 nM oligomeric compound) was 95% and 83%.

Regarding “328759 (antisense eG*eA*eG*eG*eG*dA*dT*dT*dG*dT*dA*dT*dG*dA*dA*e[5mC]*eA*eT*e[5mC]*eT) [compound 328759]”, under setting [1], the “% cells aneuploid” value was found to be 184%, the “% cells in cell cycle phase G1” value came out at 88%, the “% cells in cell cycle phase G2/M” value is on record as 168% and the “% cells in cell cycle phase S” value was 78%. Under setting [1], the “% cells in cell cycle phase subG1” value is given as 239%. Under “150 nM oligomeric compound”, the “% cells in cell cycle phase: G1” value came to 50%, the “% cells in cell cycle phase: G2/M” value came out at 343%, the “% cells in cell cycle phase: S” value was 31% and the “% cells in cell cycle phase: aneuploid” value was found to be 148%. In addition, the “% cells in cell cycle phase: subG1” value (150 nM oligomeric compound) was 1744%. Under setting [2], the “% cells in cell cycle phase G1” value is given as 40%, the “% cells in cell cycle phase G2/M” value turned out to be 203%, the “% cells in cell cycle phase S” value is recorded as 82% and the “% cells in cell cycle phase aneuploid” value was found to be 223%. Besides, under setting [2], the “% cells in cell cycle phase subG1” value was 797%.

In the case of “327904 (antisense eA*e[5mC]*eT*e[5mC]*eA*e[5mC]*e[5mC]*eG*eA*e[5mC]*eA*eG*e[5mC]*eG*eT*eT*eG*eA*eA*eT*eG*eT*eT) [compound 327904]”, under setting [1], the “% cells aneuploid” value is 89%, the “% cells in cell cycle phase G1” value is 99%, the “% cells in cell cycle phase G2/M” value is on record as 99% and the “% cells in cell cycle phase S” value is reported as 102%. For the same substance, the “% cells in cell cycle phase subG1” value under setting [1] came to 114%. For the same substance, where the note is “150 nM oligomeric compound”, the “% cells in cell cycle phase: G1” value is reported as 87%, the “% cells in cell cycle phase: G2/M” value was determined as 114%, the “% cells in cell cycle phase: S” value is listed as 126% and the “% cells in cell cycle phase: aneuploid” value is 80%. Moreover, for the setting “150 nM oligomeric compound”, the “% cells in cell cycle phase: subG1” value stood at 116%.

Consider “328382 (e[5mC]*eA*eG*eA*e[5mC]*dT*d[5mC]*d[5mC]*d[5mC]*dA*dA*d[5mC]*dT*dG*dA*e[5mC]*e[5mC]*eA*eG*eA) [compound 328382]”, for which, under setting [1], the “% cells in cell cycle phase G1” value was 118% and 102%; the “% cells in cell cycle phase G2/M” value is 116% and 144%; the “% cells in cell cycle phase S” value was 76% and 80%. Where the note is “150 nM oligomeric compound”, the “% cells in cell cycle phase: G1” value is 102% and 83%; the “% cells in cell cycle phase: G2/M” value was 103% and 120%; the “% cells in cell cycle phase: S” value was 92% and 122%; the “% cells in cell cycle phase: aneuploid” value is 109% and 133%.

Turning to “328115 (antisense eA*eG*eA*eA*eG*eG*eT*eG*eG*eG*eG*eA*eG*e[5mC]*eA*eG*e[5mC]*eG*eT*e[5mC]*eA) [compound 328115]”, under setting [1], the “% cells aneuploid” value is 59%, the “% cells in cell cycle phase G1” value stood at 90%, the “% cells in cell cycle phase G2/M” value came to 147% and the “% cells in cell cycle phase S” value is reported as 87%. Under setting [1], the “% cells in cell cycle phase subG1” value is on record as 177%. Where the note is “150 nM oligomeric compound”, the “% cells in cell cycle phase: G1” value is reported as 92%, the “% cells in cell cycle phase: G2/M” value amounted to 107%, the “% cells in cell cycle phase: S” value amounted to 114% and the “% cells in cell cycle phase: aneuploid” value is reported as 86%. Further, the “% cells in cell cycle phase: subG1” value (150 nM oligomeric compound) amounted to 195%.

On to “327876 (antisense eA*eA*e[5mC]*eA*e[5mC]*eT*eG*eA*eT*eT*eT*e[5mC]*eA*eA*eA*eT*eG*eG*eT*eG*e[5mC]*eT*eA) [compound 327876]”, for which, under setting [1], the “% cells aneuploid” value was 66% and 75%; the “% cells in cell cycle phase G1” value was 98% and 93%; the “% cells in cell cycle phase G2/M” value is 95% and 131%; the “% cells in cell cycle phase S” value is 104% and 92%. Further, the “% cells in cell cycle phase subG1” value under setting [1] was 103% and 149%. Moreover, where the note is “150 nM oligomeric compound”, the “% cells in cell cycle phase: G1” value is 87% and 76%; the “% cells in cell cycle phase: G2/M” value was 119% and 126%; the “% cells in cell cycle phase: S” value was 120% and 141%; the “% cells in cell cycle phase: aneuploid” value is 100% and 69%.
